Key:
[1] = tested on: HepG2 (hepatocellular carcinoma); assay: MTT assay for cell viability, HepG2; format: cell-based, human; details: Homo sapiens, HepG2, 48 h
Method: (§1) The human cancer cell lines e.g. HepG2 (hepatocellular carcinoma, ATCC® HB-8065™), PC-3 (human prostate cancer cells, ATCC® CRL-1435™), MCF-7 (breast adenocarcinoma, ATCC® […]), and mouse embryo fibroblasts (NIH/3T3, ATCC® CRL-1658™), used in the present study were obtained from the ATCC (American Type Culture Collection, USA and maintained in RPMI 1640 (Roswell Park Memorial Institute, Merck) with 10% FBS (Merck), supplemented with 1% antibiotic and antimycotic solution (Gibco, USA) at 37° C. in a humidified incubator with 5% CO2. All stock solutions of the compounds were prepared in cell culture grade DMSO (dimethyl sulfoxide) and stored at −20° C. Compounds were diluted in culture media prior to use in experiments. Annexin V-FITC apoptosis detection kits were purchased from Calbiochem. MTT dye was procured from Sigma-Aldrich. All the flow cytometry experiments were performed using a FACScan (Becton Dickinson, Mountain View, Calif.) flow cytometer, equipped with a single 488 nm argon laser.
(§2) Cell viability was assessed by MTT assay, which is based on the reduction of MTT by mitochondrial dehydrogenases of viable cells to form a purple formazan product. Briefly, cells (5-6×10^3/well) were plated in 96 well plates. After incubating overnight, the cells were treated with […] different concentrations (100, 50, 20, 10, 5, 2.5, 1.25 μM) in triplicates with the cationic lipidated cordiarimide and intermediates for 48 h. Subsequently, 10 μL of MTT (10 mg/mL) was added to each well and incubated for 3 h. The MTT formazan formed by viable cells was dissolved in 100 μL of DMSO and shaken for 10 min. The absorbance was measured on an ELISA reader. Each test was repeated at least three times. The concentration of the compound which gives the 50% growth inhibition value corresponding to IC50, was calculated using GraphPad prism 5 software. In the present invention we have screened 26 lipidated cordiarimides and the results are described in table 1.

[2] = tested on: mouse embryo fibroblasts (NIH/3T3); assay: MTT assay for cell viability, NIH/3T3; format: cell-based; details: NIH3T3, 48 h
Method: as §1, §2

[3] = tested on: PC-3 (human prostate cancer cells); assay: MTT assay for cell viability, PC-3; format: cell-based; details: Homo sapiens, 48 h
Method: as §1, §2

[4] = tested on: MCF-7 (breast adenocarcinoma); assay: MTT assay for cell viability, MCF-7; format: cell-based, human; details: Homo sapiens, MCF7, 48 h
Method: as §1, §2

Compound | IC50 [1] [µM] | IC50 [2] [µM] | IC50 [3] [µM] | IC50 [4] [µM]
CCCCCCCCCCCN(CCCCCCCCCCC)CC(=O)NC1CCC(=O)N(CC(=O)c2ccccc2)C1=O (centres unmarked) [Compound 7j, N-[2,6-Dioxo-1-(oxo-2-phenyl-ethyl)-piperidine-3-yl]-2-diundecylamino-acetamide] | > 20 | > 20 | 17.4 | > 20
CCCCCC[N+](C)(CCCCCC)CC(=O)NC1CCC(=O)N(CC(=O)c2ccccc2)C1=O (centres unmarked) [Compound 8e, {[2,6-Dioxo-1-(2-oxo-2-phenyl-ethyl)-piperidin-3-ylcarbamoyl]-methyl}-Dihexyl-methyl-ammonium iodide] | > 20 | > 20 | > 20 | > 20
CCCCC[N+](C)(CCCCC)CC(=O)NC1CCC(=O)N(CC(=O)c2ccccc2)C1=O (centres unmarked) [Compound 8d, {[2,6-Dioxo-1-(2-oxo-2-phenyl-ethyl)-piperidin-3-ylcarbamoyl]-methyl}-Methyl-dipentyl-ammonium iodide] | > 20 | > 20 | > 20 | > 20
CC[N+](C)(CC)CC(=O)NC1CCC(=O)N(CC(=O)c2ccccc2)C1=O (centres unmarked) [Compound 8a, {[2,6-Dioxo-1-(2-oxo-2-phenyl-ethyl)-piperidin-3-ylcarbamoyl]-methyl}-Diethyl-methyl-ammonium iodide] | > 20 | > 20 | > 20 | > 20
CCCCCCCN(CCCCCCC)CC(=O)NC1CCC(=O)N(CC(=O)c2ccccc2)C1=O (centres unmarked) [Compound 7f, 2-Diheptylamino-N-[2,6-dioxo-1-(2-oxo-2-phenyl-ethyl)-piperidin-3-yl]-acetamide] | 7.81 | 8.73 | > 20 | 9.33
CCCCCCCCC[N+](C)(CCCCCCCCC)CC(=O)NC1CCC(=O)N(CC(=O)c2ccccc2)C1=O (centres unmarked) [Compound 8h, {[2,6-Dioxo-1-(2-oxo-2-phenyl-ethyl)-piperidin-3-ylcarbamoyl]-methyl}-Methyl-dinonyl-ammonium iodide] | 3.26 | 2.74 | 8.75 | 6.45
CCC[N+](C)(CCC)CC(=O)NC1CCC(=O)N(CC(=O)c2ccccc2)C1=O (centres unmarked) [Compound 8b, Dipropylamm{[2,6-Dioxo-1-(2-oxo-2-phenyl-ethyl)-piperidin-3-ylcarbamoyl]-methyl}-methyl-ammonium iodide] | > 20 | > 20 | > 20 | > 20
CCCCCCCCCN(CCCCCCCCC)CC(=O)NC1CCC(=O)N(CC(=O)c2ccccc2)C1=O (centres unmarked) [Compound 7h, 2Dinonylamino-N-[2,6-dioxo-1-(2-oxo-2-phenyl-ethyl)-piperidin-3-yl]-acetamide] | > 20 | 10.7 | > 20 | 19.9
CCCCCCCCCCCCCCN(CCCCCCCCCCCCCC)CC(=O)NC1CCC(=O)N(CC(=O)c2ccccc2)C1=O (centres unmarked) [Compound 7m, N-[2,6-Dioxo-1-(oxo-2-phenyl-ethyl)-piperidine-3-yl]-2-ditetradecylamino-acetamide] | > 20 | > 20 | > 20 | > 20
CCCCCN(CCCCC)CC(=O)NC1CCC(=O)N(CC(=O)c2ccccc2)C1=O (centres unmarked) [Compound 7d, 2-Dipentylamino-N-[2,6-dioxo-1-(2-oxo-2-phenyl-ethyl)-piperidin-3-yl]-acetamide] | 12.5 | > 20 | > 20 | > 20
CCCCCCCCCCN(CCCCCCCCCC)CC(=O)NC1CCC(=O)N(CC(=O)c2ccccc2)C1=O (centres unmarked) [Compound 7i, 2-(Bis-decyl-amino)-N-[2,6-dioxo-1-(2-oxo-2-phenyl-ethyl)-piperidin-3-yl]acetamide] | > 20 | > 20 | > 20 | 14.2
CCN(CC)CC(=O)NC1CCC(=O)N(CC(=O)c2ccccc2)C1=O (centres unmarked) [Compound 7a, 2-Diethylamino-N-[2,6-dioxo-1-(2-oxo-2-phenyl-ethyl)-piperidin-3-yl]-acetamide] | > 20 | > 20 | > 20 | > 20
CCCCCCC[N+](C)(CCCCCCC)CC(=O)NC1CCC(=O)N(CC(=O)c2ccccc2)C1=O (centres unmarked) [Compound 8f, {[2,6-Dioxo-1-(2-oxo-2-phenyl-ethyl)-piperidin-3-ylcarbamoyl]-methyl}-Diheptyl-methyl-ammonium iodide] | 3.3 | > 20 | > 20 | > 20
CCCCN(CCCC)CC(=O)NC1CCC(=O)N(CC(=O)c2ccccc2)C1=O (centres unmarked) [Compound 7c, 2-Dibutylamino-N-[2,6-dioxo-1-(2-oxo-2-phenyl-ethyl)-piperidin-3-yl]-acetamide] | > 20 | > 20 | > 20 | > 20
CCCCCCCCCCCCN(CCCCCCCCCCCC)CC(=O)NC1CCC(=O)N(CC(=O)c2ccccc2)C1=O (centres unmarked) [Compound 7k, N-[2,6-Dioxo-1-(oxo-2-phenyl-ethyl)-piperidine-3-yl]-2-didodecylamino-acetamide] | > 20 | > 20 | > 20 | > 20
CCCCCCCCCCCCCN(CCCCCCCCCCCCC)CC(=O)NC1CCC(=O)N(CC(=O)c2ccccc2)C1=O (centres unmarked) [Compound 7l, N-[2,6-Dioxo-1-(oxo-2-phenyl-ethyl)-piperidine-3-yl]-2-ditridecylamino-acetamide] | > 20 | > 20 | > 20 | > 20
CCCN(CCC)CC(=O)NC1CCC(=O)N(CC(=O)c2ccccc2)C1=O (centres unmarked) [Compound 7b, 2-Dipropylamino-N-[2,6-dioxo-1-(2-oxo-2-phenyl-ethyl)-piperidin-3-yl]acetamide] | > 20 | > 20 | > 20 | > 20
CCCCCCCCN(CCCCCCCC)CC(=O)NC1CCC(=O)N(CC(=O)c2ccccc2)C1=O (centres unmarked) [Compound 7g, 2-Dioctylamino-N-[2,6-dioxo-1-(2-oxo-2-phenyl-ethyl)-piperidin-3-yl]-acetamide] | 11.6 | 7.18 | > 20 | 10.3
CCCC[N+](C)(CCCC)CC(=O)NC1CCC(=O)N(CC(=O)c2ccccc2)C1=O (centres unmarked) [Compound 8c, Dibutyl-{[2,6-dioxo-1-(2-oxo-2-phenyl-ethyl)-piperidin-3-ylcarbamoyl]-methyl}-methyl-ammonium iodide] | > 20 | > 20 | > 20 | > 20
CCCCCCN(CCCCCC)CC(=O)NC1CCC(=O)N(CC(=O)c2ccccc2)C1=O (centres unmarked) [Compound 7e, 2-Dihexylamino-N-[2,6-dioxo-1-(2-oxo-2-phenyl-ethyl)-piperidin-3-yl]-acetamide] | 5.7 | 3.74 | > 20 | 3.85

From US10266564B2, “Cationic lipid cordiarimide hybrid compounds and a process for preparation thereof” (COUNCIL OF SCIENTIFIC & INDUSTRIAL RESEARCH, priority 2014, dated 2019)
